According to US8187822B2, “Methods to identify modulators” (Givaudan S.A., priority 2007, dated 2012):

Target: T1, TAS2R46 (Homo sapiens, UniProt P59540)
T1 construct: The full length gene of human TAS2R44 was amplified by polymerase chain reaction (PCR) using gene-specific primers that span the entire coding region; RSS tag (first 45 amino acids of rat somatostatin receptor subtype 3) (N); expressed in transfected cells; host or cells: HEK293T/Gα16-gustducin 44 cells, transient transfection
T1 sequence (P59540 1-309): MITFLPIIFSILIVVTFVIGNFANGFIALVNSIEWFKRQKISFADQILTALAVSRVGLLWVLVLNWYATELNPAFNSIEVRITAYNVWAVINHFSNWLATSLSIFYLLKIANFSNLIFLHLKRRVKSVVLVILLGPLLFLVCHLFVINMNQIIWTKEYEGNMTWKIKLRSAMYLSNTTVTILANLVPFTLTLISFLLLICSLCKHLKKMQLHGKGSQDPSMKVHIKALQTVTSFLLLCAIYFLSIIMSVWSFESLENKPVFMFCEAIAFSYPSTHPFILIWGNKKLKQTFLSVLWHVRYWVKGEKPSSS
Assay: Fluo-4 calcium assay, HEK293T/Gα16-gustducin44 cells transiently expressing TAS2R46
Format: cell-based
Method: On day 0, the HEK293T/Gα16-gustducin 44 cells are plated in 96-well black wall, clear-bottom plates at a density of 14,000 cells per well and grown overnight in growth media (DMEM with 10% (v/v) heat-inactivated fetal bovine serum, 2 mM L-glutamine, 100 units/ml penicillin, 100 μg/ml streptomycin).
On day 1, the media is changed to an antibiotic-free and serum-free DMEM.
The cells are transfected with Lipofectamine 2000 (Invitorgen) according to the manufacturers recommendations.
Per well of a 96-well plate, 150 ng of vector DNA (SABTR expression vectors or TAS2R16 expression vector from example 1) is diluted in 12.5 μl of DMEM. In a second tube, 0.3 μl of Lipofectamine 2000 is diluted in 12.5 μl of DMEM and incubated for 5 min at room temperature. After the 5 min, both solutions are mixed and incubated for 20 min at RT. The growth medium in the plate is exchanged by 50 μl of DMEM and 25 μl of the lipofectamine/DNA mixture is incubated on the cells for 3-4 hours at 37° in a humidified atmosphere. This mixture is then replaced with an antibiotic-free, serum-containing DMEM.
24 hours post transfection, the cells are used in the Fluo-4 Calcium Assay described in Example 3.
At day 0, the HEK293T cell line expressing Gα16-gustducin44 and a TAS2R bitter taste receptor formed as described in examples 2b or 2c was seeded in antibiotic-free growth medium (standard DMEM with 10% (v/v) heat-inactivated fetal bovine serum, 2 mM L-glutamine[…]) into black wall/clear bottom 96-well plates, coated with poly(ethylenimine) (0.005% v/v) at a concentration of 15,000 cells per well and incubated for 48 hours in humidified atmosphere (37° C., 5% CO2).
At the time of the assay, the growth medium was discarded and the cells were in humidified atmosphere (37° C., 5% CO2) for 1 hour with 50 μl of loading buffer consisting of 1.5 μM Fluo-4 AM and […] probenicid (Sigma-Aldrich, St. Louis, Mo., US) in DMEM.
Afterwards, the 96-well plate was washed 5 times with 100 μl of assay buffer (130 mM NaCl, 5 mM KCl, 10 mM HEPES, 2 mM CaCl2, and 5 mM dextrose, pH 7.4) per well, using an automated plate washer (BioTek). The plate was further incubated for 30 minutes at room temperature in the dark to allow for complete de-esterification of the Fluo-4. Afterwards the plate was washed 5 times with 100 μl of assay buffer per well, and reconstituted with 100 μl of assay buffer per well.
For assay reading, the plate was placed in a Fluorometric Imaging Plate Reader (FLIPR) (FLIPR-TETRA™, Molecular Devices, Sunnyvale, Calif., US), and receptor activation was initiated by addition of 100 μl of a twofold concentrated agonist stock solution (to give the desired agonist end concentration when added to the 100 microliter assay buffer volume), which was prepared in assay buffer.
Fluorescence was continuously monitored for 20 seconds to give a signal baseline (averaged to give F0) prior to agonist addition and for 120 seconds after agonist addition. The change in signal divided by F0 gives ΔF/F0 indicated in the table, with ΔF being the maximum signal occurring within the 120 seconds minus the minimum signal (occurring within the 120 seconds after agonist addition.
All data was collected from at least two independent experiments each carried out in triplicate.
The obtained calcium signals were corrected for the response of cells expressing only the G Protein α subunit (Gα16-gustducin44) and normalized to the fluorescence of cells prior to the stimulus using ΔF/F0 (Fmax−Fmin/F0).
The intracellular calcium response following addition of sucralose was determined in HK293T cell line stably expressing Gα16-gustducin44 and transiently expressing TAS2R46 formed as described in example 2b.

- TAS2R46 ΔF/F0 (sucralose 0.3906 mM): 0.041
- TAS2R46 ΔF/F0 (sucralose 0.7813 mM): 0.038
- TAS2R46 ΔF/F0 (sucralose 1.5625 mM): 0.035
- TAS2R46 ΔF/F0 (sucralose 3.1250 mM): 0.036
- TAS2R46 ΔF/F0 (sucralose 6.2500 mM): 0.057
- TAS2R46 ΔF/F0 (sucralose 12.5000 mM): 0.075
- TAS2R46 ΔF/F0 (sucralose 25.0000 mM): 0.106
- TAS2R46 ΔF/F0 (sucralose 50.0000 mM): 0.171
- TAS2R46 ΔF/F0 (sucralose 100.0000 mM): 0.258
Compound: OC[C@H]1O[C@H](O[C@]2(CCl)O[C@H](CCl)[C@@H](O)[C@@H]2O)[C@H](O)[C@@H](O)[C@H]1Cl [Sucralose, sucralose]
- calcium signaling in TAS2R46 cells, in words: significant concentration-dependent increase in calcium signaling
